Legend:
[1] = tested on: membrane attack complex (MAC; C5b-C9) on A. fumigatus conidia; assay: FACS analysis of MAC (C5b-C9) deposition on A. fumigatus conidia in human sera; type: biochemical
Experimental: FIG. 12 depicts the therapeutic efficacy of SAP in treatment of invasive aspergillosis. a) b) c) survival of transiently immunosuppressed wt mice after injection with the indicated doses of AF conidia. The curve of untreated mice (n=3) with cyclophosphamide is also shown (a). Human SAP (4 mg/Kg) was injected at 2 h and 24 h after infection. a) AF 5.10^7, n=17; AF 5.10^7+SAP, n=15; b) AF 1.10^7, n=7; AF 1.10^7+SAP, n=8; c) AF 5.10^6, n=8; AF 5.10^6+SAP, n=10.***, P<0.005 SAP-treated vs. saline (Mantel-Cox test). One-way ANOVA, P<0.0001. d) lung CFU in mice treated with cyclophosphamide and infected with 1.10^7 AF conidia.*, P<0.05 (Mann-Whitney test). e) quantitative analysis of AF viability performed using a resazurin-based assay. Plasma (30%) from wt and Apcs^−/− mice were incubated (1 min) with 1.5×10^5 AF conidia pre-opsonized or not with SAP. Results are mean±SD of red fluorescence (excitation/emission 535/580-610 nm) intensity of the resazurin once reduced to resorufin within viable cells. Effect of Posaconazole (POC; 1 μM) exposure is also shown. Results are mean±SEM relative to the condition without serum (grey symbols) of two experiments performed with n=10 mice/group. […] AF viability assay performed in sera depleted from complement components. Figure summarizes one experiment out of 5 also conducted with serum 10%. Mean±SD.*, P<0.05; **, P<0.01 (unpaired t-test). g) and h) FACS analysis of MAC deposition on AF conidia (1×10^7) in presence of sera depleted from complement components (e) and the effect of SAP (f). Mean±SEM of 2 experiments performed out of 4. e, f,*, P<0.05;**, P<0.01;***, P<0.005;****, P<0.001; (Mann-Whitney test).
Complement deposition on Aspergillus fumigatus. A volume of 10 μl PBS, pH 7.4, containing 1×10^7 conidia eventually opsonized with murine SAP (100 μg/ml per 1×10^9 conidia, 1 h at r.t.) was incubated (37° C.) in round bottom wells of Corning® 96-well polypropylene microplates for the indicated time points with 20 μl mouse plasma-heparin or 20 μl human NS and complement depleted sera (diluted in PBS at 10% and 30%). Complement deposition was blocked by addition of EDTA (10 mM final concentration) and by cooling in ice. After centrifugation (2000 rpm, 10 min at 4° C.), when indicated supernatant was collected for C5a measurement by ELISA. […] Conidia were then incubated (1 h, at 4° C.) with Alexa Fluor® 488 and 647-conjugated species-specific cross-adsorbed detection antibodies (2 μg/ml; ThermoFisher Scientific-Molecular Probes) and analysed by BD FACS Canto™ II Flow Cytometer (BD Biosciences) using forward and side scatter parameters to gate on at least 8,000 conidia. […] Results were expressed as frequency of conidia showing fluorescence compared with irrelevant controls and as geometric conidia MFI.

A. fumigatus = assay: Rescue experiment: survival after i.t. injection of Sap-opsonised A. fumigatus conidia; type: in vivo, mice; details: 5×10^7 i.t.
Experimental: FIG. 5 depicts the rescue of susceptibility to A. fumigatus in SAP-deficient mice. a) b) c) d) i.t. injection of non-opsonised or Sap-opsonised AF conidia. a) survival of wt and Apcs^−/− mice. Wt, n=10; wt+Sap, n=10; Apcs^−/−, n=14; Apcs^−/−+Sap, n=13.****, P<0.0001, wt vs. Apcs^−/− or Apcs^−/− vs. Apcs^−/−+Sap (Mantel-Cox test). b) and c) levels of TNF-α (b) and MPO (c) in BALFs of mice (16 h). b),****, P<0.0001;**, P<0.01. c),***, P<0.0005. d, FACS analysis of neutrophil recruitment in lung (16 h). Mean±SEM.****, P<0.0001;*, P<0.05. b), c), d), Mean±SEM; Mann-Whitney test.
The growth and culture conditions of A. fumigatus and A. Flavus conidia were as described (Garlanda et al., 2002). For intratracheal (i.t.) injection, mice were anesthetized by i.p. injection of ketamine (100 mg/Kg; i.p.) and xylazine (10 mg/Kg i.p.). After surgical exposure, a volume of 50 μl PBS^2+, pH 7.4, containing 1×10^8 or 5×10^7 resting conidia (>95% viable, as determined by serial dilution and plating of the inoculum on Sabouraud dextrose agar) were delivered into trachea under direct vision using a catheter connected to the outlet of a micro-syringe (Terumo, Belgium). Survival to infection was daily monitored for 10d later. Dying mice were euthanized after evaluation of the following clinical parameters: body temperature dropping, intermittent respiration, solitude presence, sphere posture, fur erection, non-responsive alertness, and inability to ascent when induced.
In experiments of in vivo phagocytosis, mice were i.t. injected with 5×10^7 heat inactivated fluorescein isothiocyanate (FITC)-labelled conidia and euthanized 4 h later. In rescue experiments, conidia (1×10^9) were opsonized with murine recombinant SAP (50 μg/ml; R&D Systems) for 1 h at r.t. in PBS, pH 7.4, containing 0.01% (vol/vol) Tween-20® (Merck-Millipore). After washing of unbound protein, a volume of 50 μl (5×10^7 conidia) was i.t. injected.

human native SAP: Native SAP from human serum purchased by Merck-Millipore; Serum Amyloid P component, SEQ ID NO: 1
MAC formation on conidia ([1]; FB-depleted serum): enhanced | MAC formation on conidia ([1]; FH-depleted serum): enhanced | MAC formation on conidia ([1]; MBL-depleted serum): enhanced | MAC formation on conidia ([1]; normal serum, 1 min and 30 min): enhanced

B1: recombinant murine SAP: recombinant murine SAP from mouse myeloma cell line NSO (R&D Systems) (protein, UniProt P12246 21-224, looked up)
Serum amyloid P-component: QTDLKRKVFVFPRESETDHVKLIPHLEKPLQNFTLCFRTYSDLSRSQSLFSYSVKGRDNELLIYKEKVGEYSLYIGQSKVTVRGMEEYLSPVHLCTTWESSSGIVEFWVNGKPWVKKSLQREYTVKAPPSIVLGQEQDNYGGGFQRSQSFVGEFSDLYMWDYVLTPQDILFVYRDSPVNPNILNWQALNYEINGYVVIRPRVWD
MST (A. fumigatus; Apcs−/− mice): > 10 days | mice that resisted infection (survival) (A. fumigatus; Apcs−/− mice): 69% | MST (A. fumigatus; wt mice): > 10 | survival (A. fumigatus; wt mice): 70%

— patent publication US20220054588A1, “USE OF SAP FOR THE TREATMENT OF EUROTIOMYCETES FUNGI INFECTIONS” (HUMANITAS MIRASOLE S.P.A., priority 2018, published 2022)
